Where a name gives a salt, the structure may show the parent alone.
Molecular target: human MCH-1 receptor (Homo sapiens, UniProt Q99705)
Assay: Binding assay for human melanin-concentrating hormone (MCH-1) receptor, radioligand displacement on CHO-K1 cell membranes
Settings: for inhibition at 1 µM: read-out: MCH1 % inhibition @ 1 uM
Procedure: Nonspecific binding was determined in the presence of 50 μM 1-(5-(4-cyanophenyl)bicyclo[3.1.0]hexan-2-yl)-3-(4-fluoro-3-(trifluoromethyl)phenyl)-1-(3-(4-methylpiperazin-1-yl)propyl)urea. […] The filters were counted for radioactivity in a liquid scintillation counter (Tri-Carb 2100TR, Packard) using a scintillation cocktail (Ultima Gold MV, Perkin Elmer).
The results are expressed as a percent inhibition of the control radioligand specific binding. The IC50 value (concentration causing a half-maximal inhibition of control specific binding) and Hill coefficient (nH) were determined by non-linear regression analysis of the competition curve using Hill equation curve fitting.

Sequence of human MCH-1 receptor (Q99705 whole entry): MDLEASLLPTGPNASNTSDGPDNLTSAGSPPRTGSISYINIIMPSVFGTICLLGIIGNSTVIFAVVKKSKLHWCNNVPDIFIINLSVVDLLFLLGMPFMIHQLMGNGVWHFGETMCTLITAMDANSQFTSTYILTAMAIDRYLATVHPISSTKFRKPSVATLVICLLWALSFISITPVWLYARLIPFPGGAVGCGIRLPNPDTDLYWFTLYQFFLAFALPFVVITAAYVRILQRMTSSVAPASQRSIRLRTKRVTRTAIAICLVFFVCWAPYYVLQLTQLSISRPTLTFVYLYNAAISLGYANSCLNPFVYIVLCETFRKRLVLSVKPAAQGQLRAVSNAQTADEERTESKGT

Compound | Ki [µM] | inhibition at 1 µM [%]
CN1CCCc2oc3cc(-n4ccc(OCc5ccc(C(F)(F)F)nc5)cc4=O)ccc3c2C1 [Example 86, 1-(2-Methyl-2,3,4,5-tetrahydro-1H-benzofuro[3,2-c]azepin-8-yl)-4-((6-(trifluoromethyl)pyridin-3-yl)methoxy)pyridin-2(1H)-one hydrochloride] | 0.053 | –
O=C1CN(CCc2ccc(Cl)cc2)CCN1c1ccc2c3c(oc2c1)CCNC3 [Example 87, 4-(4-Chlorophenethyl)-1-(1,2,3,4-tetrahydrobenzofuro[3,2-c]pyridin-7-yl)piperazin-2-one hydrochloride] | 0.058 | –
O=C1CN(CCc2ccc(Cl)cc2)CCN1c1ccc2c3c(oc2c1)CCCNC3 [Example 89, 4-(4-Chlorophenethyl)-1-(2,3,4,5-tetrahydro-1H-benzofuro[3,2-c]azepin-8-yl)piperazin-2-one hydrochloride] | 0.017 | –
O=C1CN(CCc2ccc(Cl)cn2)CCN1c1ccc2c3c(oc2c1)CCCNC3 [Example 90, 4-(2-(5-Chloropyridin-2-yl)ethyl)-1-(2,3,4,5-tetrahydro-1H-benzofuro[3,2-c]azepin-8-yl)piperazin-2-one hydrochloride] | 0.019 | –
O=c1cc(OCc2ccccc2)ccn1-c1ccc2c3c(oc2c1)CCN(CCF)C3 [Example 92, 4-(Benzyloxy)-1-(2-(2-fluoroethyl)-1,2,3,4-tetrahydrobenzofuro[3,2-c]pyridin-7-yl)pyridin-2(1H)-one hydrochloride] | 0.025 | –
CN1CCCc2oc3cc(N4CCN(CCc5ccc(Cl)cc5)CC4=O)ccc3c2C1 [Example 93, 4-(4-Chlorophenethyl)-1-(2-methyl-2,3,4,5-tetrahydro-1H-benzofuro[3,2-c]azepin-8-yl)piperazin-2-one hydrochloride] | 0.069 | –
CN1CCCc2oc3cc(N4CCN(CCc5ccc(Cl)cn5)CC4=O)ccc3c2C1 [Example 94, 4-(2-(5-Chloropyridin-2-yl)ethyl)-1-(2-methyl-2,3,4,5-tetrahydro-1H-benzofuro[3,2-c]azepin-8-yl)piperazin-2-one hydrochloride] | 0.103 | –
CN1CCCc2oc3cc(N4CCN(CCc5ccc(F)cn5)CC4=O)ccc3c2C1 [Example 95, 4-(2-(5-Fluoropyridin-2-yl)ethyl)-1-(2-methyl-2,3,4,5-tetrahydro-1H-benzofuro[3,2-c]azepin-8-yl)piperazin-2-one hydrochloride] | – | 62
CC(C)N1CCCc2oc3cc(N4CCN(CCc5ccc(Cl)cc5)CC4=O)ccc3c2C1 [Example 96, 4-(4-Chlorophenethyl)-1-(2-isopropyl-2,3,4,5-tetrahydro-1H-benzofuro[3,2-c]azepin-8-yl)piperazin-2-one hydrochloride] | 0.15 | –
CC(C)N1CCCc2oc3cc(N4CCN(CCc5ccc(Cl)cn5)CC4=O)ccc3c2C1 [Example 97, 4-(2-(5-Chloropyridin-2-yl)ethyl)-1-(2-isopropyl-2,3,4,5-tetrahydro-1H-benzofuro[3,2-c]azepin-8-yl)piperazin-2-one hydrochloride] | – | 66
O=C1CN(CCc2ccc(Cl)cn2)CCN1c1ccc2c3c(oc2c1)CCNCC3 [Example 98, 4-(2-(5-Chloropyridin-2-yl)ethyl)-1-(2,3,4,5-tetrahydro-1H-benzofuro[2,3-d]azepin-8-yl)piperazin-2-one hydrochloride] | 0.153 | –
O=C1CN(CCc2ccc(Cl)cc2)CCN1c1ccc2c3c(oc2c1)CCNCC3 [Example 99, 4-(4-Chlorophenethyl)-1-(2,3,4,5-tetrahydro-1H-benzofuro[2,3-d]azepin-8-yl)piperazin-2-one hydrochloride] | 0.098 | –
O=c1cc(CCc2ccc(F)cn2)ccn1-c1ccc2c3c(oc2c1)CCCNC3 [Example 100, 4-(2-(5-Fluoropyridin-2-yl)ethyl)-1-(2,3,4,5-tetrahydro-1H-benzofuro[3,2-c]azepin-8-yl)pyridin-2(1H)-one hydrochloride] | 0.0081 | –
O=c1nc(CCc2ccc(Cl)cn2)ccn1-c1ccc2c3c(oc2c1)CCCNC3 [Example 103, 4-(2-(5-Chloropyridin-2-yl)ethyl)-1-(2,3,4,5-tetrahydro-1H-benzofuro[3,2-c]azepin-8-yl)pyrimidin-2(1H)-one hydrochloride] | 0.008 | –
O=c1cc(-c2ccc(C(F)(F)F)nn2)ccn1-c1ccc2c3c(oc2c1)CCCNC3 [Example 106, 1-(2,3,4,5-Tetrahydro-1H-benzofuro[3,2-c]azepin-8-yl)-4-(6-(trifluoromethyl)pyridazin-3-yl)pyridin-2(1H)-one hydrochloride] | 0.199 | –
O=c1cc(CCc2ccc(Cl)cn2)ccn1-c1ccc2c3c(oc2c1)CCCNC3 [Example 107, 4-(2-(5-Chloropyridin-2-yl)ethyl)-1-(2,3,4,5-tetrahydro-1H-benzofuro[3,2-c]azepin-8-yl)pyridin-2(1H)-one hydrochloride] | 0.0042 | –
O=c1cc(CCc2ccccc2)ccn1-c1ccc2c3c(oc2c1)CCCNC3 [Example 108, 4-Phenethyl-1-(2,3,4,5-tetrahydro-1H-benzofuro[3,2-c]azepin-8-yl)pyridin-2(1H)-one hydrochloride] | 0.0032 | –
O=c1cc(OCc2ccc(F)cn2)ccn1-c1ccc2oc3c(c2c1)CCCNC3 [Example 109, 4-((5-Fluoropyridin-2-yl)methoxy)-1-(2,3,4,5-tetrahydro-1H-benzofuro[2,3-c]azepin-7-yl)pyridin-2(1H)-one hydrochloride] | – | 12
O=c1cc(OCc2ccccc2)ccn1-c1ccc2oc3c(c2c1)CCCNC3 [Example 110, 4-(Benzyloxy)-1-(2,3,4,5-tetrahydro-1H-benzofuro[2,3-c]azepin-7-yl)pyridin-2(1H)-one hydrochloride] | – | 12
O=c1cc(OCc2ccc(C(F)(F)F)cn2)ccn1-c1ccc2c3c(oc2c1)CCNC3 [Example 115, 1-(1,2,3,4-Tetrahydrobenzofuro[3,2-c]pyridin-7-yl)-4-((5-(trifluoromethyl)pyridin-2-yl)methoxy)pyridin-2(1H)-one hydrochloride] | 0.013 | –
O=c1cc(OCc2ccccc2)ccn1-c1ccc2sc3c(c2c1)CCCNC3 [Example 116, 4-(Benzyloxy)-1-(2,3,4,5-tetrahydro-1H-benzo[4,5]thieno[2,3-c]azepin-7-yl)pyridin-2(1H)-one hydrochloride] | – | 37
O=c1cc(OCc2ccccc2)ccn1-c1ccc2sc3c(c2c1)CCNCC3 [Example 117, 4-(Benzyloxy)-1-(2,3,4,5-tetrahydro-1H-benzo[4,5]thieno[2,3-d]azepin-9-yl)pyridin-2(1H)-one hydrochloride] | 0.103 | –
O=C1CN(CCc2ccc(Cl)cn2)CCN1c1ccc2c3c(sc2c1)CNCC3 [Example 121, 4-(2-(5-Chloropyridin-2-yl)ethyl)-1-(1,2,3,4-tetrahydrobenzothieno[2,3-c]pyridin-7-yl)piperazin-2-one hydrochloride] | 0.044 | –
O=c1cc(OCc2ccccc2)ccn1-c1ccc2c3c(sc2c1)CCCNC3 [Example 122, 4-(Benzyloxy)-1-(2,3,4,5-tetrahydro-1H-benzothieno[3,2-c]azepin-8-yl)pyridin-2(1H)-one hydrochloride] | 0.0033 | –
O=c1cc(OCc2ccc(Cl)cn2)ccn1-c1ccc2c3c(sc2c1)CCCNC3 [Example 123, 4-((5-Chloropyridin-2-yl)methoxy)-1-(2,3,4,5-tetrahydro-1H-benzothieno[3,2-c]azepin-8-yl)pyridin-2(1H)-one hydrochloride] | 0.0029 | –

Source: patent publication US20140163012A1, “PYRIDO-/AZEPINO-BENZOFURAN AND PYRIDO-/AZEPINO-BENZOTHIOPHENE MCH-1 ANTAGONISTS, METHODS OF MAKING, AND USE THEREOF” (Albany Molecular Research, Inc., priority 2012, published 2014)
